Assay results reported in patent EP0015214B1, “Derivatives of substituted 2-benzoyl glycinanilides, their preparation and their use in anxiolytic medicaments” (PIERRE FABRE S.A., priority 1979, dated 1980).

What was measured:
[1] = tested on: souris mâles de souche swiss; assay: Rotating rod test (Rota-Rod); format: in vivo; conditions: Mus musculus, po, male Swiss mice, 10 per dose, effective if the mouse falls off the rod in less than two minutes, read-out: Rota-Rod v. o. DE50
Excerpt: On réalise cet essai sur des souris mâles de souche swiss. On place la souris sur une tige de bois d'un diamètre de 3 crn, tournant à raison de cinq tours par minute. On choisit les souris qui peuvent rester sur la tige pendant au moins trois minutes au cours d'essais successifs et on les rassemble par groupe de dix pour l'essai de chaque dose.
Si la souris tombe de la tige en moins de deux minutes, on considère le composé essayé comme efficace.
Les résultats sont exprimés en DE50 selon: N. W. Dunham et T. S. Miva (J. Amer. Pharm. Asso., 1957, 46,208).

[2] = Oral toxicity, lethal dose 50 (Miller and Tainter method); conditions: in vivo, lethal dose 50 calculated by the Miller and Tainter method, read-out: Toxicité v. o. DE50
Excerpt: Les composés les plus actifs de la présente invention ont été soumis à des contrôles de toxicité.
La dose létale 50 et les activités pharmacologiques sont rapportées dans le Tableau (I).
La dose létale a été recherchée par voie orale et calculée selon la méthode de Miller et Tainter (Proc. Soc. Exper. Biol. Med., 1944,57,261).

[3] = tested on: souris mâles de souche swiss; assay: Pentetrazol antagonism (protection against tonic convulsions); format: in vivo; conditions: Mus musculus, po, 60 min before 125 mg/kg s.c. pentetrazol, male Swiss mice, observed for two hours, read-out: Pentétrazol v. o. DE50
Method: Ce test est réalisé sur un groupe de dix souris mâles de souche Swiss. Dans un délai de quinze minutes après l'injection sous-cutanée de 125 mg/kg de pentétrazol, les souris ont des convulsions toniques dont l'issue est fatale. Pour l'essai, on administre par voie orale les composés soixante minutes avant l'injection de pentétrazol. Les animaux sont observes pendant deux heures après administration du pentétrazol.
Les résultats sont exprimés par la dose efficace DE50 selon Goodmann et Coll. (J. Pharmacol. 108, 1953).

| Compound | ED50 [1] | LD50 [2] | ED50 [3] |
| --- | --- | --- | --- |
| CN(C(=O)CNC1CCCCC1)c1ccc(Br)cc1C(=O)c1ccccc1 [Br] | 22 mg/kg | > 1000 mg/kg | – |
| CN(C(=O)CNC1CCCCC1)c1ccc(C(F)(F)F)cc1C(=O)c1ccccc1 [Exemple 12, N-méthyl N'-cyclohexyl (benzoyf-2' trifluorométhyl-4') glycylanilide] | 8 mg/kg | > 1000 mg/kg | 1 mg/kg |
| CN(C(=O)CNC1CCCCC1)c1ccc(C#N)cc1C(=O)c1ccccc1 [Exemple 13, Chlorhydrate de N-méthyl N'-cyclohexyl (benzoyl-2' cyano-4') glycylanilide] | 7 mg/kg | > 1000 mg/kg | 0.9 mg/kg |
